This note sets out measurements from BindingDB's records for patent US10457686 (Hoffmann-La Roche Inc., 2019).

Bounds are passed on as bounds.

This experiment has as its target Cannabinoid receptor 1 (Homo sapiens, UniProt P21554).

Cannabinoid receptor 1, sequence (P21554 whole entry): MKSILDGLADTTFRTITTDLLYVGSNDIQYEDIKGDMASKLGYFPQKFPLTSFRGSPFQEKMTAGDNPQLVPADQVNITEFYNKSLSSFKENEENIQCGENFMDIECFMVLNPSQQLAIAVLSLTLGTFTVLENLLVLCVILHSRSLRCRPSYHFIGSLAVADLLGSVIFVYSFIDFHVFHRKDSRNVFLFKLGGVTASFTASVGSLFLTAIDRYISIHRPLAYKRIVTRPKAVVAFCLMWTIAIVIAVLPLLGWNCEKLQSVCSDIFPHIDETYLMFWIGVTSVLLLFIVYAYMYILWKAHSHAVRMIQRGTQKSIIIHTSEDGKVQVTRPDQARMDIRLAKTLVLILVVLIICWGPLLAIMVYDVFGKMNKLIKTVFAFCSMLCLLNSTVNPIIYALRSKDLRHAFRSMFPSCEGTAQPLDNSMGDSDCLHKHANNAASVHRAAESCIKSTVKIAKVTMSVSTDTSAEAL

`CC(C)(C)c1nc(N2CCC(F)(F)C2)c2nn(Cc3ccc(C4(C(F)(F)F)N=N4)cc3Cl)nc2n1` [US10457686, Example 1] showed a Ki above 10 µM.
